Paper PMC8286840, “Identifying SARS-CoV-2 antiviral compounds by screening for small molecule inhibitors of Nsp3 papain-like protease” (Biochemical Journal, 2021)
Structures can show the parent of a compound that is named as a salt. Where two headings read alike, the source gives them in different places.

Key:
[1] = molecular target: T1, SARS-CoV-2 PLpro (nsp3 1564–1878) (Severe acute respiratory syndrome coronavirus 2, UniProt P0DTD1); assay: biochemical; design: FRET-quenched peptide (Pro3) cleavage by PLpro, 10 min pre-incubation, slope over 20 min, normalised to no-compound control; details: read-out: % of control remaining
[2] = molecular target: T1, SARS-CoV-2 PLpro (nsp3 1564–1878); assay: biochemical; design: FRET-quenched peptide (Pro3) cleavage by PLpro, 10 min pre-incubation, slope over 20 min, normalised to no-compound control; details: read-out: % of control remaining; remark: listed apart in the source

Q: With CN1C[C@@H](NS(=O)(=O)N(C)C)C[C@@H]2c3cccc4c3c(cn4C)C[C@H]21 [Mesulergine hydrochloride] as the molecule, how does the remaining activity at 1.25 µM ([1]; Well no.=897, low concentration screen) read?
A: 106%

Q: And the remaining activity at 3.75 µM ([2]; Well no.=897, high concentration screen)?
A: 105%

Q: What does the source list for Cc1ncc(CO)c(CO)c1O [Metadoxine]?
A: remaining activity at 1.25 µM ([1]; Well no.=8662, low concentration screen): 96.1%; remaining activity at 3.75 µM ([2]; Well no.=8662, high concentration screen): 93.3%

Q: For S=C=Nc1cccc(C2(N3CCCCC3)CCCCC2)c1 [Metaphit methanesulfonate], which remaining activity at 1.25 µM ([1]; Well no.=991, low concentration screen) is on record?
A: 98.8%

Q: And the remaining activity at 3.75 µM ([2]; Well no.=991, high concentration screen)?
A: 98.9%

Q: What does the source list for CC(C)NCC(O)c1cc(O)cc(O)c1 (stereo not drawn) [Metaproterenol hemisulfate]?
A: remaining activity at 1.25 µM ([1]; Well no.=826, low concentration screen): 104%; remaining activity at 3.75 µM ([2]; Well no.=826, high concentration screen): 100%

Q: C[C@H](N)[C@H](O)c1cccc(O)c1 [Metaraminol (tartrate)] was tested. Which remaining activity at 1.25 µM ([1]; Well no.=6417, low concentration screen) did it give?
A: 103%

Q: What about the remaining activity at 3.75 µM ([2]; Well no.=6417, high concentration screen) of the same molecule?
A: 99.6%

Q: With CN1C[C@H](CNC(=O)OCc2ccccc2)C[C@@H]2c3cccc4c3c(cn4C)C[C@H]21 [Metergoline] as the molecule, how does the remaining activity at 1.25 µM ([1]; Well no.=782, low concentration screen) read?
A: 99.4%

Q: And the remaining activity at 3.75 µM ([2]; Well no.=782, high concentration screen)?
A: 100%

Q: How did the remaining activity at 1.25 µM ([1]; Well no.=8430, low concentration screen) turn out when CN(C)C(=N)NC(=N)N [Metformin HCl] was run?
A: 94.8%

Q: What about the remaining activity at 3.75 µM ([2]; Well no.=8430, high concentration screen) of the same molecule?
A: 94.9%

Q: What does the source list for CN(C)C(=N)NC(=N)N [Metformin]?
A: remaining activity at 1.25 µM ([1]; Well no.=1627, low concentration screen): 103%; remaining activity at 3.75 µM ([2]; Well no.=1627, high concentration screen): 103%

Q: With CC(=O)OC(C)C[N+](C)(C)C (stereo not drawn) [Methacholine (chloride)] as the molecule, how does the remaining activity at 1.25 µM ([1]; Well no.=6323, low concentration screen) read?
A: 100%

Q: What about the remaining activity at 3.75 µM ([2]; Well no.=6323, high concentration screen) of the same molecule?
A: 98.1%

Q: With CC(=O)/N=c1/sc(S(N)(=O)=O)nn1C [Methazolamide] as the molecule, how does the remaining activity at 1.25 µM ([1]; Well no.=4686, low concentration screen) read?
A: 100%

Q: And the remaining activity at 3.75 µM ([2]; Well no.=4686, high concentration screen)?
A: 98.7%

Q: For C1N2CN3CN1CN(C2)C3 [Methenamine (Mandelamine)], which remaining activity at 1.25 µM ([1]; Well no.=4975, low concentration screen) is on record?
A: 96.3%

Q: What about the remaining activity at 3.75 µM ([2]; Well no.=4975, high concentration screen) of the same molecule?
A: 96.7%

Q: Which remaining activity at 1.25 µM ([1]; Well no.=7448, low concentration screen) does the source give for COc1cccc(OC)c1C(=O)N[C@@H]1C(=O)N2[C@@H]1SC(C)(C)[C@@H]2C(=O)O [Methicillin (sodium salt)] here?
A: 100%

Q: What about the remaining activity at 3.75 µM ([2]; Well no.=7448, high concentration screen) of the same molecule?
A: 99.6%

Q: Cn1ccnc1S [Methimazole] was tested. Which remaining activity at 1.25 µM ([1]; Well no.=1961, low concentration screen) did it give?
A: 92.6%

Q: What about the remaining activity at 3.75 µM ([2]; Well no.=1961, high concentration screen) of the same molecule?
A: 94.6%

Q: Which results are given for CSc1ccc2c(c1)C(N1CCN(C)CC1)Cc1ccccc1S2 (stereo not drawn) [Methiothepin mesylate]?
A: remaining activity at 1.25 µM ([1]; Well no.=801, low concentration screen): 99.9%; remaining activity at 3.75 µM ([2]; Well no.=801, high concentration screen): 101%

Q: With COc1ccccc1OCC(O)COC(N)=O (stereo not drawn) [Methocarbamol] as the molecule, how does the remaining activity at 1.25 µM ([1]; Well no.=8238, low concentration screen) read?
A: 98%

Q: What about the remaining activity at 3.75 µM ([2]; Well no.=8238, high concentration screen) of the same molecule?
A: 94.6%

Q: Which remaining activity at 1.25 µM ([1]; Well no.=1085, low concentration screen) does the source give for COc1ccccc1CNCCCCCCNCCCCCCCCNCCCCCCNCc1ccccc1OC [Methoctramine tetrahydrochloride] here?
A: 102%

Q: What about the remaining activity at 3.75 µM ([2]; Well no.=1085, high concentration screen) of the same molecule?
A: 102%

Q: COC(C)(C)CCCC(C)C/C=C/C(C)=C/C(=O)O (stereo not drawn) [Methoprene acid] was tested. Which remaining activity at 1.25 µM ([1]; Well no.=4438, low concentration screen) did it give?
A: 98.3%

Q: And the remaining activity at 3.75 µM ([2]; Well no.=4438, high concentration screen)?
A: 100%

Q: Which remaining activity at 1.25 µM ([1]; Well no.=69, low concentration screen) does the source give for CN(Cc1cnc2nc(N)nc(N)c2n1)c1ccc(C(=O)N[C@@H](CCC(=O)O)C(=O)O)cc1 [Methotrexate] here?
A: 94.1%

Q: What about the remaining activity at 1.25 µM ([1]; Well no.=7352, low concentration screen) of the same molecule?
A: 94.4%

Q: What about the remaining activity at 3.75 µM ([2]; Well no.=69, high concentration screen) of the same molecule?
A: 95.5%

Q: And the remaining activity at 3.75 µM ([2]; Well no.=7352, high concentration screen)?
A: 97.6%

Q: What does the source list for COc1ccc(OC)c([C@@H](O)[C@H](C)N)c1 [Methoxamine hydrochloride]?
A: remaining activity at 1.25 µM ([1]; Well no.=980, low concentration screen): 100%; remaining activity at 3.75 µM ([2]; Well no.=980, high concentration screen): 101%

Q: With CNC(C)Cc1ccccc1OC (stereo not drawn) [Methoxyphenamine (Hydrochloride)] as the molecule, how does the remaining activity at 1.25 µM ([1]; Well no.=8577, low concentration screen) read?
A: 109%

Q: What about the remaining activity at 3.75 µM ([2]; Well no.=8577, high concentration screen) of the same molecule?
A: 105%

Q: With C[N+]1(C)[C@@H]2C[C@@H](OC(=O)[C@H](CO)c3ccccc3)C[C@H]1[C@@H]1O[C@@H]12 [Methscopolamine (bromide)] as the molecule, how does the remaining activity at 1.25 µM ([1]; Well no.=8297, low concentration screen) read?
A: 97.7%

Q: And the remaining activity at 3.75 µM ([2]; Well no.=8297, high concentration screen)?
A: 96.8%

Q: With CCc1c(C(=O)OC)ncc2[nH]c3cc(OC)c(OC)cc3c12 [Methyl 6,7-dimethoxy-4-ethyl-beta-carboline-3-carboxylate] as the molecule, how does the remaining activity at 1.25 µM ([1]; Well no.=703, low concentration screen) read?
A: 97.5%

Q: And the remaining activity at 3.75 µM ([2]; Well no.=703, high concentration screen)?
A: 95.4%

Q: What does the source list for COC(=O)c1cc2c(cn1)[nH]c1ccccc12 [Methyl beta-carboline-3-carboxylate]?
A: remaining activity at 1.25 µM ([1]; Well no.=607, low concentration screen): 95.4%; remaining activity at 3.75 µM ([2]; Well no.=607, high concentration screen): 98.2%

Q: For CO[C@]1(CC[C@@H](C)CO[C@@H]2O[C@H](CO)[C@@H](O)[C@H](O)[C@H]2O)O[C@H]2C[C@H]3[C@@H]4CC=C5C[C@@H](O[C@@H]6O[C@H](CO)[C@@H](O[C@@H]7O[C@@H](C)[C@H](O)[C@@H](O)[C@H]7O)[C@H](O)[C@H]6O[C@@H]6O[C@@H](C)[C@H](O)[C@@H](O)[C@H]6O)CC[C@]5(C)[C@H]4CC[C@]3(C)[C@H]2[C@@H]1C [Methyl protodioscin], which remaining activity at 1.25 µM ([1]; Well no.=6208, low concentration screen) is on record?
A: 101%

Q: What about the remaining activity at 3.75 µM ([2]; Well no.=6208, high concentration screen) of the same molecule?
A: 93.7%

Q: How did the remaining activity at 1.25 µM ([1]; Well no.=1716, low concentration screen) turn out when COC(=O)c1ccccc1O [Methyl salicylate] was run?
A: 102%

Q: And the remaining activity at 3.75 µM ([2]; Well no.=1716, high concentration screen)?
A: 101%

Q: How did the remaining activity at 1.25 µM ([1]; Well no.=4864, low concentration screen) turn out when COc1ccc([C@@H]2CC(=O)c3c(O)cc(O[C@@H]4O[C@H](CO[C@@H]5O[C@@H](C)[C@H](O)[C@@H](O)[C@H]5O)[C@@H](O)[C@H](O)[C@H]4O)cc3O2)cc1OC [Methyl-Hesperidin] was run?
A: 98.4%

Q: What about the remaining activity at 3.75 µM ([2]; Well no.=4864, high concentration screen) of the same molecule?
A: 99.3%

Q: For CC[N+](C)(CC)CCOC(=O)C(O)(c1ccccc1)c1ccccc1 [Methylbenactyzium Bromide], which remaining activity at 1.25 µM ([1]; Well no.=7773, low concentration screen) is on record?
A: 101%

Q: What about the remaining activity at 3.75 µM ([2]; Well no.=7773, high concentration screen) of the same molecule?
A: 94.7%

Q: With CNC(=O)OCC[N+](C)(C)C [Methylcarbamylcholine chloride] as the molecule, how does the remaining activity at 1.25 µM ([1]; Well no.=1135, low concentration screen) read?
A: 95.1%

Q: And the remaining activity at 3.75 µM ([2]; Well no.=1135, high concentration screen)?
A: 96.5%

Q: For C[C@](N)(Cc1ccc(O)c(O)c1)C(=O)O [Methyldopa], which remaining activity at 1.25 µM ([1]; Well no.=1955, low concentration screen) is on record?
A: 92.2%

Q: What about the remaining activity at 3.75 µM ([2]; Well no.=1955, high concentration screen) of the same molecule?
A: 92.5%

Q: CC[C@@H](CO)NC(=O)[C@@H]1C=C2c3cccc4[nH]cc(c34)C[C@H]2N(C)C1 [Methylergonovine maleate] was tested. Which remaining activity at 1.25 µM ([1]; Well no.=1114, low concentration screen) did it give?
A: 94.9%

Q: And the remaining activity at 1.25 µM ([1]; Well no.=3250, low concentration screen)?
A: 98.4%

Q: What about the remaining activity at 3.75 µM ([2]; Well no.=1114, high concentration screen) of the same molecule?
A: 90.6%

Q: And the remaining activity at 3.75 µM ([2]; Well no.=3250, high concentration screen)?
A: 98%

Q: What does the source list for CC(C(=O)O)C(=O)O [Methylmalonate]?
A: remaining activity at 1.25 µM [1]: 100%; remaining activity at 3.75 µM [2]: 95.5%

Q: Which remaining activity at 1.25 µM ([1]; Well no.=8091, low concentration screen) does the source give for C[N@+]1(CC2CC2)CC[C@]23c4c5ccc(O)c4O[C@H]2C(=O)CC[C@@]3(O)[C@H]1C5 [Methylnaltrexone (Bromide)] here?
A: 97.4%

Q: And the remaining activity at 3.75 µM ([2]; Well no.=8091, high concentration screen)?
A: 102%

Q: How did the remaining activity at 1.25 µM ([1]; Well no.=1957, low concentration screen) turn out when C[C@H]1C[C@@H]2[C@H]([C@@H](O)C[C@@]3(C)[C@H]2CC[C@]3(O)C(=O)CO)[C@@]2(C)C=CC(=O)C=C12 [Methylprednisolone] was run?
A: 100%

Q: What about the remaining activity at 1.25 µM ([1]; Well no.=6179, low concentration screen) of the same molecule?
A: 95.4%

Q: What about the remaining activity at 3.75 µM ([2]; Well no.=1957, high concentration screen) of the same molecule?
A: 99.7%

Q: What about the remaining activity at 3.75 µM ([2]; Well no.=6179, high concentration screen) of the same molecule?
A: 95.1%
